The values below come from patent US20260001875A1, “AMINOPYRIMIDINYL DERIVATIVES FOR THE TREATMENT OF PARKINSON'S DISEASE” (UNIVERSITY OF DUNDEE, priority 2022, published 2026).

Assay [1] concerns Rab10 pThr73. Briefly: Rab10 Thr73 dephosphorylation (immunoblot) in WT MEFs. It counts as cell-based, mouse. The note with it: Mus musculus, read-out: pRab10 inhibited in WT MEFs. How it is done: Western blot degradation assays for the LRRK2 protacs were performed with WT and PD-associated LRRK2 [G2019S] mouse embryonic fibroblasts (MEFs). The second-generation PROTACs were tested in parallel with the first generation PROTACs SD75, SD82, and SD100. The compounds were tested at 33 nM or […] concentrations for 4 hours or 24 hours, running two biological replicates per condition and achieving quantifications representative of both replicates. Analysis by quantitative immunoblotting was performed with readouts of the total LRRK2 (antibody recognizes epitope in C-terminus of protein), Rab10 pThr73 (physiological substrate) and LRRK2 pSer935 (biomarker phosphorylation site).
(§1) Primary MEFs were generated as described in a previous study (Wiggin et al., Mol. Cell Biol. 2002 April; 22(8):2871-81.). Briefly, the uterine horn was collected from adult female mice at day E12.5 and transferred to a 10 cm tissue culture dish containing cold PBS. Two forceps were used to tear the yolk sacs to isolate each embryo. Forceps were cleaned thoroughly with 70% ethanol between each embryo isolation. The embryos were culled, and a tissue piece was collected in a PCR tube for genotyping. The red tissue of the embryo, which grows to become the heart and liver, was removed. The remainder of the embryo was minced with a scalpel blade and incubated with 7.5 ml trypsin-EDTA solution for 10 minutes in a 37° C. tissue culture CO2 incubator. The dish was removed from the incubator and checked under a light microscope for single cells. 7.5 ml complete media was added to the trypsinised cells, and the cell suspension was transferred to a 15 ml Falcon tube, centrifuged at 1200 rpm for 5 minutes at room temperature. The trypsin was aspirated, the cell pellet was resuspended in 5 ml fresh complete media, and the cell suspension was plated in a 60 mm tissue culture dish and incubated in a 37° C., 5% CO2 tissue culture incubator. The MEFs at this stage were considered as passage 0 and were passaged and expanded for experimental use once the genotype was confirmed by allelic sequencing and immunoblotting. MEFs were cultured in Dulbecco's modified Eagle medium (DMEM) containing 10% (v/v) fetal bovine serum (FBS), 2 mM L-glutamine, 100 U/ml penicillin, and 100 μg/ml streptomycin supplemented with 1× non-essential amino acids and 1 mM sodium pyruvate.
Culturing and passaging of adherent cell lines were carried out using aseptic technique in CL1 or CL2 (for PBMC isolation) biological safety cabinets. All cells were incubated in a 37° C. incubator with 5% CO2. Cell lines were regularly tested for mycoplasma contamination. For western blot assay, the cells were seeded in 6-well plates. After treating with testing compounds at indicated concentrations and time period, the media was removed and the cells were washed with PBS and lysed in 100 μl ice-cold complete lysis buffer containing 50 mM Tris-HCl pH 7.4, 1 mM EGTA, 10 mM 2-glycerophosphate, 50 mM sodium fluoride, 5 mM sodium pyrophosphate, 270 mM sucrose, supplemented with 1 μg/ml microcystin-LR, 1 mM sodium orthovanadate, complete EDTA-free protease inhibitor cocktail (Roche) and 1% (v/v) Triton X-100. The cells were immediately placed on ice and were scraped and collected into 1.5 ml Eppendorf tubes. Cell lysates were incubated on ice for 10 minutes prior to centrifugation at 15,000 g at 4° C. for 15 minutes. The cell pellet was discarded, and supernatant was collected for analysis by quantitative immunoblotting. For long term storage, the supernatant was flash frozen and stored at −80° C. Protein concentrations of cell lysates were determined using the Bradford assay.
Cell lysates containing a quarter of a volume of 4× NuPAGE LDS sample buffer (NP0007) supplemented with 5% β-mercaptoethanol, were heated at 95° C. for 5 minutes. […]

Assay [2] has as its system Rab10 pThr73. Briefly: Rab10 Thr73 dephosphorylation (immunoblot) in LRRK2^G2019S MEFs. In kind it is cell-based. Particulars: Mus musculus, read-out: pRab10 inhibited in LRRK2^G2019S MEFs. How it is done: The second-generation PROTACs were tested in parallel with the first generation PROTACs SD75, SD82, and SD100. The compounds were tested at 33 nM or […] concentrations for 4 hours or 24 hours, running two biological replicates per condition and achieving quantifications representative of both replicates. Analysis by quantitative immunoblotting was performed with readouts of the total LRRK2 (antibody recognizes epitope in C-terminus of protein), Rab10 pThr73 (physiological substrate) and LRRK2 pSer935 (biomarker phosphorylation site).
as §1
Culturing and passaging of adherent cell lines were carried out using aseptic technique in CL1 or CL2 (for PBMC isolation) biological safety cabinets. All cells were incubated in a 37° C. incubator with 5% CO2. Cell lines were regularly tested for mycoplasma contamination. For western blot assay, the cells were seeded in 6-well plates. […] The cells were immediately placed on ice and were scraped and collected into 1.5 ml Eppendorf tubes. Cell lysates were incubated on ice for 10 minutes prior to centrifugation at 15,000 g at 4° C. for 15 minutes. The cell pellet was discarded, and supernatant was collected for analysis by quantitative immunoblotting. For long term storage, the supernatant was flash frozen and stored at −80° C. Protein concentrations of cell lysates were determined using the Bradford assay.
Cell lysates containing a quarter of a volume of 4× NuPAGE LDS sample buffer (NP0007) supplemented with 5% β-mercaptoethanol, were heated at 95° C. for 5 minutes. 15 to 20 μg of samples were loaded onto pre-cast 4-12% Bis-Tris midi 20W or 26W gels (Thermofisher Scientific®, Cat #WG1402BOX or WG1403BOX) and resolved at 130 V for 2 hours with NuPAGE MOPS SDS running buffer (Thermofisher Scientific® Cat #NP0001-02). Proteins were electrophoretically transferred onto a 0.45 μm nitrocellulose membrane (GE Healthcare, Amersham Protran® Supported 0.45 mm NC) at 90 V for 90 min on ice in transfer buffer (48 mM Tris base and 39 mM glycine supplemented with 20% methanol). The transferred membrane was blocked with 5% (w/v) skim milk powder dissolved in tris-buffered saline with tween (TBS-T) (50 mM Tris base, 150 mM sodium chloride (NaCl), 0.1% (v/v) Tween-20) at room temperature for 1 hour.

In assay [3] the test system is Rab10 pThr73. The assay is described as above. It counts as cell-based, mouse. Particulars: Mus musculus, read-out: pRab10 inhibited in LRRK2^G2019S MEFs.

Each structure is given as a SMILES string.

As to `CNc1nc(Nc2ccc(C(=O)N3CCN(CCOCCOCCN4CCN(c5ccc6c(c5)C(=O)N(C5CCC(=O)NC5=O)C6=O)CC4)CC3)cc2OC)ncc1Cl` (stereo not drawn) [SD10, 5-(4-(2-(2-(2-(4-(4-((5-chloro-4-(methylamino)pyrimidin-2-yl)amino)-3-methoxybenzoyl)piperazin-1-yl)ethoxy)ethoxy)ethyl)piperazin-1-yl)-2-(2,6-dioxopiperidin-3-yl)isoindoline-1,3-dione], the inhibition at 0.033 µM in assay [1] (33 nM/4 h treatment) lay within 0 to 25%; in assay [1] (33 nM/24 h treatment), 10 to 40%; in assay [2] (33 nM/4 h treatment), 0 to 60%; in assay [2] (33 nM/24 h treatment), 0 to 70%. For the same compound, the inhibition at 1 µM in assay [1] (1 μM/4 h treatment) lay within 18 to 90%; in assay [1] (1 μM/24 h treatment) it was 30 to 90%; in assay [3] (1 μM/4 h treatment), 30 to 95%; in assay [3] (1 μM/24 h treatment), 30 to 100%.
Take `CNc1nc(Nc2ccc(C(=O)N3CCN(CCOCCOCCOCCOCCOc4cc(-c5scnc5C)ccc4CNC(=O)[C@@H]4C[C@@H](O)CN4C(=O)[C@@H](NC(=O)C4(F)CC4)C(C)(C)C)CC3)cc2OC)ncc1Cl` [SD79, (2S,4R)—N-(2-((14-(4-(4-((5-chloro-4-(methylamino)pyrimidin-2-yl)amino)-3-methoxybenzoyl)piperazin-1-yl)-3,6,9,12-tetraoxatetradecyl)oxy)-4-(4-methylthiazol-5-yl)benzyl)-1-((S)-2-(1-fluorocyclopropane-1-carboxamido)-3,3-dimethylbutanoyl)-4-hydroxypyrrolidine-2-carboxamide]: the inhibition at 0.033 µM in assay [1] (33 nM/4 h treatment) was in the range of 0 to 25%; in assay [1] (33 nM/24 h treatment), 10 to 40%; in assay [2] (33 nM/4 h treatment) it was 0 to 60%; in assay [2] (33 nM/24 h treatment), 0 to 70%. The inhibition at 1 µM in assay [1] (1 μM/4 h treatment) fell in the range of 18 to 90%; in assay [1] (1 μM/24 h treatment) it was 30 to 90%; in assay [3] (1 μM/4 h treatment), 30 to 95%; in assay [3] (1 μM/24 h treatment), 30 to 100%.
As for `CNc1nc(Nc2ccc(C(=O)N3CCN(C[C@H](C)SC(C)(C)[C@H](NC(=O)C4(F)CC4)C(=O)N4C[C@H](O)C[C@H]4C(=O)NCc4ccc(-c5scnc5C)cc4)CC3)cc2OC)ncc1Cl` [XL01140, (2S,4R)-1-((R)-3-(((S)-1-(4-(4-((5-chloro-4-(methylamino)pyrimidin-2-yl)amino)-3-methoxybenzoyl)piperazin-1-yl)propan-2-yl)thio)-2-(1-fluorocyclopropane-1-carboxamido)-3-methylbutanoyl)-4-hydroxy-N-(4-(4-methylthiazol-5-yl)benzyl)pyrrolidine-2-carboxamide], the inhibition at 0.033 µM in assay [1] (33 nM/4 h treatment) lay in the range of 0 to 40%; in assay [1] (33 nM/24 h treatment) it was 0 to 60%; in assay [2] (33 nM/4 h treatment) it was 0 to 70%; in assay [2] (33 nM/24 h treatment), 0 to 90%. Further, the inhibition at 1 µM lay within 10 to 95% in assay [1] (1 μM/4 h treatment), 30 to 100% in assay [1] (1 μM/24 h treatment), 20 to 100% in assay [3] (1 μM/4 h treatment) and 10 to 100% in assay [3] (1 μM/24 h treatment).
Take `CNc1nc(Nc2ccc(C(=O)N3CCN(Cc4ccc(CSC(C)(C)[C@H](NC(=O)C5(F)CC5)C(=O)N5C[C@H](O)C[C@H]5C(=O)N[C@@H](C)c5ccc(-c6scnc6C)cc5)cc4)CC3)cc2OC)ncc1Cl` [XL01120, (2S,4R)-1-((R)-3-((4-((4-(4-((5-chloro-4-(methylamino)pyrimidin-2-yl)amino)-3-methoxybenzoyl)piperazin-1-yl)methyl)benzyl)thio)-2-(1-fluorocyclopropane-1-carboxamido)-3-methylbutanoyl)-4-hydroxy-N—((S)-1-(4-(4-methylthiazol-5-yl)phenyl)ethyl)pyrrolidine-2-carboxamide]: the inhibition at 0.033 µM was 0 to 40% in assay [1] (33 nM/4 h treatment), 0 to 60% in assay [1] (33 nM/24 h treatment), 0 to 70% in assay [2] (33 nM/4 h treatment) and 0 to 90% in assay [2] (33 nM/24 h treatment). Further, the inhibition at 1 µM in assay [1] (1 μM/4 h treatment) was in the range of 10 to 95%; in assay [1] (1 μM/24 h treatment) it was 30 to 100%; in assay [3] (1 μM/4 h treatment), 20 to 100%; in assay [3] (1 μM/24 h treatment) it was 10 to 100%.
For `CNc1nc(Nc2ccc(C(=O)N3CCN(CCCN4CCN(c5ccc6c(c5)C(=O)N(C5CCC(=O)NC5=O)C6=O)CC4)CC3)cc2OC)ncc1Cl` (stereo not drawn) [SD11, 5-(4-(3-(4-(4-((5-chloro-4-(methylamino)pyrimidin-2-yl)amino)-3-methoxybenzoyl)piperazin-1-yl)propyl)piperazin-1-yl)-2-(2,6-dioxopiperidin-3-yl)isoindoline-1,3-dione], the inhibition at 0.033 µM is 0 to 25% in assay [1] (33 nM/4 h treatment), 10 to 40% in assay [1] (33 nM/24 h treatment), 0 to 60% in assay [2] (33 nM/4 h treatment) and 0 to 70% in assay [2] (33 nM/24 h treatment). Also, the inhibition at 1 µM in assay [1] (1 μM/4 h treatment) lay within 18 to 90%; in assay [1] (1 μM/24 h treatment) it was 30 to 90%; in assay [3] (1 μM/4 h treatment), 30 to 95%; in assay [3] (1 μM/24 h treatment), 30 to 100%.
Take `CNc1nc(Nc2ccc(C(=O)N3C[C@@H](C)N(C[C@H]4CC[C@H](CSC(C)(C)C(NC(=O)C5(F)CC5)C(=O)N5C[C@H](O)C[C@H]5C(=O)NCc5ccc(-c6scnc6C)cc5)CC4)[C@@H](C)C3)cc2OC)ncc1Cl` (stereo partly drawn) [XL02031]: the inhibition at 0.033 µM in assay [1] (33 nM/4 h treatment) lay within 0 to 70%; in assay [1] (33 nM/24 h treatment), 0 to 80%; in assay [2] (33 nM/4 h treatment), 0 to 90%; in assay [2] (33 nM/24 h treatment) it was 30 to 90%. The inhibition at 1 µM in assay [1] (1 μM/4 h treatment) is 80 to 100%; in assay [1] (1 μM/24 h treatment), 80 to 100%; in assay [3] (1 μM/4 h treatment), 10 to 100%; in assay [3] (1 μM/24 h treatment), 80 to 100%.
